Here are results for 4 molecules from US5665330A, “Dual purposed diagnostic/therapeutic agent having a tri-iodinated benzoyl group linked to a coumarin” (Nano Systems LLC, priority 1995, dated 1997).

The test system of series [1] is axillary nodes. Kind of series: lymphography, CT imaging of axillary nodes after subcutaneous injection. It counts as in vivo, New Zealand White Rabbits. Particulars: 4 hours post injection, single 0.5 ml subcutaneous dose, dorsal side of forepaw. As for the experimental part: (§1) 0.75 g of WIN 67591, as prepared in Example 1, was added to approximately 30 ml of 1.1 mm zirconium oxide beads and 10 ml of a solution which was 2% Tetronic 908 (wt/vol %) and 1% SA9OHCO (wt/vol %). SA9OHCO is a small sugar surfactant. The suspension was roller milled in a 60 ml jar at approximately 100 rpm for 7 days. At the end of this time, the average particle size was determined to be 192 nm by light scattering using a Zetasizer III. The suspension was removed from the beads and sent for subcutaneous injection as a lymphographic agent. CT imaging was carried out using a GE Model 9800 Instrument.

A short description of series [2]: biodistribution study, circulation in blood of colon 33 tumor bearing mice. It counts as in vivo. Particulars: Example 7, i.v. 0.2 ml/animal. As for the experimental part:
(§2) A nanoparticulate formulation of 5% w/v […] in 3% polyoctylphenol (Tyloxopol) was prepared by ten days roller milling following the procedures similar to that of Example 9.
(§3) A biodistribution study of the treatment of Example 5 was conducted by iv injections into colon 33 tumor bearing mice at 0.2 ml/animal. […] No dead mice were reported during the 48 hours treatment.
(§4) […] as prepared in Example 1 at 5% W/V was formulated with 3% Tyloxapol by roller milling for ten days following the procedures similar to that of work example 3 and 4. The average particle size by PCS was 302 nm. The formulation was administered i.v. to colon 33 bearing mice at 0.2 ml/animal. […] As high as 700 ug (0.7% of the total dosage) WIN 67591 remained circulating in the blood 1 hour post injection. WIN 67591 was detected in the tumor tissue as early as 5 minute post injection. The drug concentration reached a maximum at 90 ug/g of tumor tissue at 6 hour post injection and maintained at a concentration of 60 ug/g in the tumor tissue for 48 hours.

Series [3] can be described thus: average particle size of roller-milled nanoparticle suspension (light scattering / PCS). It counts as physicochemical. As for the experimental part: as §1
(§5) 2.85 g of WIN 67591 (19.2%) were added to 30 ml of a solution of 5.2% BASF NF Grade Tetronic 908 (wt/vol %) in sterilized distilled water and approximately 100 ml of 1.1 mm zirconium silicate beads in a 250 ml bottle. The bottle was capped and rolled at approximately 140 rpm for 7 days at which time the average particle size was determined to be 173 nm. The suspension was separated from the beads and sent for intravenous injection as a vascular x-ray contrast agent. New Zealand White rabbits were used for this study and were injected via the ear vein at a dose of 3 ml/kg. Three animals were studied for times 5, 15, 30, 60, 120 min. and 24 hours. CT scanning was carried out using a Toshiba Model TCT-900S/x at the times indicated.
as §4

Series [4] has as its system colon 33 tumor tissue. Put plainly: tumor tissue concentration after iv injection in mice bearing colon 33 tumor. It counts as in vivo. As for the experimental part:
as §2
(§6) The formulation was administered to mice bearing colon 33 tumor by iv injection. Analysis of the tumor tissue indicated the presence of WIN 67591 in the tumor tissue as soon as 5 minutes after injection. The drug concentration reached a maximum of 90 μg/g of tumor tissue at 6 hours and maintained at a concentration of 60 μg/g of tumor tissue for 42 hours.
as §4

Experiment in series [5]: as above
The class given is in vivo. Conditions: mouse, colon 33 tumor tissue, iv; for Cmax at 6 h: read-out: maximum drug concentration in tumor tissue; for Tmax: read-out: time of maximum drug concentration in tumor tissue. As for the experimental part:
as §2, §6, §4

Series [6] in a line: water solubility. It counts as physicochemical. As for the experimental part: Despite the high water solubility of sodium ditriazoate and sodium methoxy coumarin (>1 mg/ml), WIN 67638 and WIN 67591 are sparingly soluble in water with solubility less than 0.01 mg/mL.
By water soluble is meant greater than 1 mg/ml.

Series [7] in a line: blood pool imaging, vascular x-ray contrast by CT after intravenous injection. Particulars: 3 ml/kg via ear vein, CT at 5, 15, 30, 60, 120 min and 24 hours. It counts as in vivo, New Zealand White rabbits. As for the experimental part: as §5
Series [8] in a line: mortality in biodistribution study in colon 33 tumor bearing mice. Conditions: iv 0.2 ml/animal; during 48 hours treatment. It counts as in vivo. As for the experimental part: as §2, §3

Where two headings read alike, the source gives them in different places.

Usually solubility stands for the dissolved amount per volume that the medium holds. Turning to `COc1cc2oc(=O)cc(COC(=O)c3c(I)c(NC(C)=O)c(I)c(NC(C)=O)c3I)c2cc1OC` [WIN 67591], the “enhancement of the axillary nodes (CT)” value in series [1] is reported as “clear enchancement of the axillary nodes”. For the same molecule, the “amount remaining circulating in the blood” value in series [2] (1 hour post injection) came to 700 µg. In addition, the “share of total dosage remaining circulating in the blood” value in series [2] (1 hour post injection) was 0.7%. Moreover, the blood circulation result in series [2] is listed as “prolonged blood circulation”. Also, the average particle size in series [3] (2% Tetronic 908 and 1% SA9OHCO, roller milled 7 days, light scattering, Zetasizer III) was 192 nm; in series [3] (5.2% Tetronic 908 in sterilized distilled water, rolled 7 days), 173 nm. In addition, in series [3] (5% W/V with 3% Tyloxapol, roller milling ten days), the “average particle size by PCS” value came out at 302 nm. Further, in series [4] (Example 5, iv), the “time for which tumor concentration of 60 μg/g was maintained” value worked out at 42 h. The “tumor tissue concentration versus average therapeutic dosage of oncologics” value in series [4] (Example 5, iv) is listed as “exceeds the average therapeutic dosage of oncologics”. In series [4] (Example 5, iv, 5% w/v in 3% Tyloxapol), the “time at which drug is present in tumor tissue” value was at most 5 min. In addition, the “time at which drug is detected in tumor tissue” value in series [4] (Example 7, HPLC, i.v. 0.2 ml/animal) was at most 5 min. Also, the “time for which tumor concentration of 60 ug/g was maintained” value in series [4] (Example 7, i.v. 0.2 ml/animal) stood at 48 h. Besides, the Cmax at 6 h in series [5] (Example 7, at 6 hour post injection, i.v. 0.2 ml/animal) turned out to be 90000 ng/g; in series [5] (Example 5, at 6 hours), 90000 ng/g. For the same molecule, in series [5] (Example 7, for 48 hours, i.v. 0.2 ml/animal, read-out: concentration maintained in tumor tissue), the concentration at 48 h was determined as 60000 ng/g. Moreover, the Tmax worked out at 6 h in series [5] (Example 7, i.v. 0.2 ml/animal) and 6 h in series [5] (Example 5). In addition, the concentration at 42 h in series [5] (Example 5, for 42 hours, read-out: concentration maintained in tumor tissue) is 60000 ng/g. Also, the solubility in series [6] (in water, conjugates, read-out: solubility in water) was under 10 µg/mL. Also, the “prolonged vascular residence time” value in series [7] was over 2 h. In series [8], the dead mice entry is “No dead mice”.
In the case of `COc1ccc2c(COC(=O)c3c(I)c(NC(C)=O)c(I)c(NC(C)=O)c3I)cc(=O)oc2c1` [WIN 67638], the solubility in series [6] (water) was under 10 µg/mL.
For the molecule `CC(=O)Nc1c(I)c(NC(C)=O)c(I)c(C(=O)O)c1I` [sodium ditriazoate, sodium diatrizoate, reference compound], the solubility in series [6] (in water, starting materials, read-out: water solubility) was over 1000 µg/mL.
sodium methoxy coumarin came in with a water solubility in series [6] (water) of over 1000 µg/mL.
